Experimental data reported in patent EP0441876B1, “NON-BIOA[…]” (COULSTON INTERNATIONAL CORPORATION, priority 1988, dated 1990).

Assays:
[1] = Bioaccumulation tests in rats; assay type: in vivo, Sprague Dawley and Fisher Rats; conditions: female rats, oral gavage on five consecutive days, sacrificed after 14 days, tissue analysis by GC-ECD with regard to total dose
Experimental: (§1) • I. Insecticide Testing Insects: Mosquitoes Species: Aedes aegypti, Anopheles quadramaculatus The mosquitoes were bred under controlled conditions (humidity, temperature and nutrition) at White Sands Research center. Test room temperature: approximately 70 F (average) Test room humidity: between 50% and 70% (average) Procedure: The test compounds were dissolved in HPLC grade acetone at the appropriate concentrations. One ml of the solution was applied with a disposable 1 ml syringe on filter paper (Whatman 541, 9.0 cm diameter). After evaporatin of the acetone, the filter paper was placed in a Petri dish (diameter also about 9.0 cm) with alid. […] The mosquitoes (not less than 5 or more than 20) were transferred in the dish through a hole in the lid. The lid was stopped up with a cotton ball wrapped in filter paper and soaked in sugar water. Two dishes with control insects - the filter paper was treated with 1 ml pure acetone - were observed. Readings were taken 3 to 4 times during the first hour, thereafter every hour. […] "Down" (D) = mosquitoes are disabled to fly, lay on their back or side. "Dead" = mosquitoes are completely moveless (e.g. no movement of body, legs or wints). these criteria can be considered as very strict. • II. Bioaccumulation Tests in Rats Species: Sprague Dawley and Fisher Rats Sex: Female Age/Weight: Young rats (average weight between 130 and 180 grams) Procedure: The animals were housed in stainless steel metabolism cages in a temperature controlled animal room. They were quarantined for at least 6 days before being placed on the study. Three rats were taken for each test compound (see appendix for dose levels). Each animal was dosed on five consecutive days by oral gavage. The test compound was dissolved or suspended in 0.5% carboxy methyl cellulose solution or corn oil (Mazola). After 14 days the rats were sacrificed by CO2. Samples of fat (abdominal) liver, kidneys, brain and muscle (leg) were removed and extracted for analysis. The fat of each rat was analyzed separately with regard to the individual total dose. The other organs of all three rats were combined and analyzed with regard to the total dose being applied to all three rats. The analysis was done by gas chromatography under ECD (electron capture detector) detection.

Aedes aegypti = assay: Filter paper test for insecticidal activity against mosquitoes (Table 3); assay type: in vivo; conditions: for 100 % kill: time after which 100% of the mosquitoes were killed
Experimental: The experimental design of the test for activity against mosquitoes is as follows.
[…] The filter paper was then placed in a petri dish and 10-20 mosquitoes (Aedes aegypti) added. The effect of the chemical on the mosquitoes (flying activity, mortality) was observed and recorded for up to 72 hours. Generally the experiments were in triplicate, the parent cyclodiene and its dechlorinated derivative were tested and compared to the control; the filter paper of the control was treated with acetone only. A total of 9 pairs of chemicals (parent cyclodiene and dechlorinated derivative) and CIC-134 were tested according to the procedure above.

[2] = system: Mosquitoes: Aedes aegypti, Anopheles quadramaculatus; assay: Insecticide testing on filter paper: knock-down and killing effect (Table 5); assay type: in vivo; conditions: for Lowest Concentration With Killing Effect / Lowest Concentration for Knockdown: concentration of acetone solution, 1 ml on filter paper
Experimental: as §1

[3] = system: Acheta domestica (Crickets); assay: Contact test at 1% concentration; assay type: in vivo
Maize Weevil = assay: Contact test at 1% concentration; assay type: in vivo
[4] = system: Ctenocephalides felis (Cat fleas); assay: Contact test at 1% concentration; assay type: in vivo
[5] = system: Tenebrio molitor (Greater Meal Worm); assay: Contact test at 1% concentration; assay type: in vivo
Grainery Weevil = assay: Contact test at 1% concentration; assay type: in vivo
[6] = system: Mosca domestica (House fly); assay: Contact test at 1% concentration; assay type: in vivo
[7] = system: Blatella germanica (German cockroach); assay: Contact test at 1% concentration; assay type: in vivo
[8] = system: Sitophilus Oryza (Rice Weevil); assay: Contact test at 1% concentration; assay type: in vivo
Pediculus humanus (Lice) = assay: Contact test at 1% concentration; assay type: in vivo
[9] = system: Cimex lectularius (Bed bugs); assay: Contact test at 1% concentration; assay type: in vivo
[10] = 1% solution in acetone, 1 ml on filter paper, time after which 100% of the mosquitoes were affected (dead, lying down, wobbly, erratic)
[11] = 1% solution in acetone, 1 ml on filter paper

Compound: 1,2-endo,3-endo,4,7-anti-pentachlronorbornane [CIC-148]
- Bioaccumulation in Rats [1]: ~1.30% (estimate value)
- 100% effect (Aedes aegypti; [10]): 0.08 h
- 100 % kill (Aedes aegypti; [11]): 6 h
- dead ([2]; 0.015%, after 5 hours): 60%
- down ([2]; 0.06%, time not given): 80%
- Lowest Concentration With Killing Effect [2]: 0.015%
- Lowest Concentration for Knockdown [2]: 0.06%

Compound: 1,4,7,7-Tetrachloro-bicyclo [2.2.1]-heptane epoxide [CIC-150]
- 100% effect (Aedes aegypti; [10]): 4 h
- 100 % kill (Aedes aegypti; [11]): 23 h
- dead ([2]; 0.5%, after 7 hours): 27%
- Lowest Concentration With Killing Effect [2]: 0.5%

Compound: 1,2,3,4,5-endo,6-endo,7-syn-heptachoronorborn-2-ene [CIC-143]
- 100% effect (Aedes aegypti; [10]): 2 h
- 100 % kill (Aedes aegypti; [11]): 23 h

Compound: Cl[C@@H]1C[C@]2(Cl)CC[C@@]1(Cl)C2(Cl)Cl [CIC-141, 1,2-endo,4,7,7-pentachloronorbornane]
- 100% effect (Aedes aegypti; [10]): 0.25 h
- 100 % kill (Aedes aegypti; [11]): 10 h
- down ([2]; 0.5%, 5 minutes): 38%
- Lowest Concentration With Killing Effect [2]: 0.125%
- Lowest Concentration for Knockdown [2]: 0.5%

Compound: CC1CC2(Cl)CCC1(Cl)C2(Cl)Cl (stereo not shown) [CIC-151, 1,4,7,7-tetrachloro-2-methyl-norbornane]
- Bioaccumulation in Rats [1]: 0.01%
- 100% effect (Aedes aegypti; 0.5% solution in acetone on filter paper, time after which 100% of the mosquitoes were affected): 0.16 h
- 100 % kill (Aedes aegypti; 0.5% solution in acetone on filter paper): 12 h
- down ([2]; 0.5%, time not given): 73%
- Lowest Concentration With Killing Effect [2]: 0.50%
- Lowest Concentration for Knockdown [2]: 0.5%
- mortality at 0.5 % ([2]; read-out: dead): 73%

Compound: Cl[C@H]1[C@H](Cl)[C@@]2(Cl)CC[C@]1(Cl)C2(Cl)Cl [CIC-146, 1,2-exo,3-endo,4,7,7-hexachloronorbornane]
- 100% effect (Aedes aegypti; [10]): 3 h
- 100 % kill (Aedes aegypti; [11]): 24 h
- Lowest Concentration With Killing Effect [2]: > 1%

Compound: ClC1=CC2(Cl)CCC1(Cl)C2(Cl)Cl (stereo not shown) [CIC-147, 1,2,4,7,7-pentachloronorborn-2-ene]
- Bioaccumulation in Rats [1]: 1.04%
- 100% effect (Aedes aegypti; [10]): 0.08 h
- 100 % kill (Aedes aegypti; [11]): 9 h
- down ([2]; 0.125%, 10 minutes): 63%
- mortality at 0.125 % ([2]; 1.5 h, read-out: dead): 50%
- Lowest Concentration With Killing Effect [2]: 0.125%
- Lowest Concentration for Knockdown [2]: 0.125%

Compound: Cl[C@@H]1[C@H](Cl)[C@]2(Cl)CC[C@@]1(Cl)C2 [CIC-145, 1,2-endo,3-endo,4-tetrachloronorbornane]
- insecticidal effect in contact test [3]: effective insecticides
- insecticidal effect in contact test (Maize Weevil): effective insecticides
- insecticidal effect in contact test [4]: effective insecticides
- Bioaccumulation in Rats [1]: >> 0.01%
- insecticidal effect in contact test [5]: effective insecticides
- insecticidal effect in contact test (Grainery Weevil): effective insecticides
- 100% effect (Aedes aegypti; [10]): 0.08 h
- 100 % kill (Aedes aegypti; [11]): 3 h
- mortality at 0.04 % ([2]; 0.04%, after 5 hours, read-out: dead): 62%
- down ([2]; 0.08%, after 5 minutes): 63%
- Lowest Concentration With Killing Effect [2]: 0.04%
- Lowest Concentration for Knockdown [2]: 0.08%
- insecticidal effect in contact test [6]: effective insecticides
- insecticidal effect in contact test [7]: effective insecticides
- insecticidal effect in contact test [8]: effective insecticides
- insecticidal effect in contact test (Pediculus humanus (Lice)): effective insecticides
- insecticidal effect in contact test [9]: effective insecticides

Compound: ClC12C=CC(Cl)(CC1)C2(Cl)Cl [CIC-142, 1,4,7,7-tetrachloronorbon-2-ene]
- insecticidal effect in contact test [3]: only mildly effective
- insecticidal effect in contact test (Maize Weevil): effective insecticides
- insecticidal effect in contact test [4]: effective insecticides
- Bioaccumulation in Rats [1]: 1.24%
- insecticidal effect in contact test [5]: effective insecticides
- insecticidal effect in contact test (Grainery Weevil): no effect
- 100% effect (Aedes aegypti; [10]): 0.25 h
- 100 % kill (Aedes aegypti; [11]): 3 h
- down ([2]; 0.75%, after 4 minutes): 37%
- Lowest Concentration With Killing Effect [2]: 0.3%
- Lowest Concentration for Knockdown [2]: 0.75%
- insecticidal effect in contact test [6]: effective insecticides
- insecticidal effect in contact test [7]: effective insecticides
- insecticidal effect in contact test [8]: effective insecticides
- insecticidal effect in contact test (Pediculus humanus (Lice)): effective insecticides
- insecticidal effect in contact test [9]: effective insecticides

Compound: 1,4,7,7-Tetrachloro-bicyclo- [2.2.1]-heptane-poxide (less) [CIC-149]
- 100% effect (Aedes aegypti; [10]): 0.33 h
- 100 % kill (Aedes aegypti; [11]): 9 h
- dead ([2]; 0.063%, after 6 hours): 67%
- down ([2]; 0.5%, after 10 minutes): 36%
- Lowest Concentration With Killing Effect [2]: 0.063%
- Lowest Concentration for Knockdown [2]: 0.5%
- Knock-down, remark in words ([2]; in vivo): Not very fast knock-down

Compound: 1,2-endo,3-endo,4,7-syn-pentachloronorbornane [CIC-144]
- Bioaccumulation in Rats [1]: 0.01%
- 100% effect (Aedes aegypti; [10]): 0.08 h
- 100 % kill (Aedes aegypti; [11]): 23 h
- dead ([2]; 0.06%, after 22 hours): 79%
- down ([2]; 0.06%, time not given): 55%
- Lowest Concentration With Killing Effect [2]: 0.06%
- Lowest Concentration for Knockdown [2]: 0.06%
